Test results: PubChem BioAssay AID248 (DTP/NCI, 2004)
“And” between values parts separate entries of the source, which are not always exact repeats. Equal entries are not always repeated. Inconclusive results and toxic doses are left out.

System: L1210 leukemia ip in BDF1 mice, survival T/C
Experiment: NCI In Vivo Anticancer Drug Screen. Data for tumor model L1210 Leukemia (intraperitoneal) in B6D2F1 (BDF1) mice
Conditions: endpoint: mean survival time, higher = longer survival
Method in brief: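 Tumor was transplanted into mice, which were then dosed with test compound or vehicle alone. Survival was recorded for each group, and the treated figure was expressed relative to the control figure.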

[1] = dose: 200.0 mg/kg/injection, schedule: Q01DX009 (ip), vehicle: Klucel (hydroxypropylcellulose) (HPC)
[2] = dose: 100.0 mg/kg/injection, schedule: Q04DX002 (ip), vehicle: saline with Tween-80
[3] = dose: 200.0 mg/kg/injection, schedule: Q04DX002 (ip), vehicle: saline with Tween-80
[4] = dose: 400.0 mg/kg/injection, schedule: Q04DX002 (ip), vehicle: saline with Tween-80
[5] = dose: 100.0 mg/kg/injection, schedule: Q04DX002 (ip), vehicle: Klucel (hydroxypropylcellulose) (HPC)
[6] = dose: 200.0 mg/kg/injection, schedule: Q04DX002 (ip), vehicle: Klucel (hydroxypropylcellulose) (HPC)
[7] = dose: 400.0 mg/kg/injection, schedule: Q04DX002 (ip), vehicle: Klucel (hydroxypropylcellulose) (HPC)
[8] = dose: 100.0 mg/kg/injection, schedule: Q01DX001 (ip), vehicle: carboxymethylcellulose (CMC)
[9] = dose: 200.0 mg/kg/injection, schedule: Q01DX001 (ip), vehicle: carboxymethylcellulose (CMC)
[10] = dose: 400.0 mg/kg/injection, schedule: Q01DX001 (ip), vehicle: carboxymethylcellulose (CMC)
[11] = dose: 50.0 mg/kg/injection, schedule: Q04DX002 (ip), vehicle: saline
[12] = dose: 100.0 mg/kg/injection, schedule: Q04DX002 (ip), vehicle: saline
[13] = dose: 200.0 mg/kg/injection, schedule: Q04DX002 (ip), vehicle: saline
[14] = dose: 37.5 mg/kg/injection, schedule: Q04DX003 (ip), vehicle: saline
[15] = dose: 75.0 mg/kg/injection, schedule: Q04DX003 (ip), vehicle: saline
[16] = dose: 150.0 mg/kg/injection, schedule: Q04DX003 (ip), vehicle: saline
[17] = dose: 100.0 mg/kg/injection, schedule: Q01DX001 (ip), vehicle: saline
[18] = dose: 100.0 mg/kg/injection, schedule: Q04DX003 (ip), vehicle: saline
[19] = dose: 200.0 mg/kg/injection, schedule: Q01DX001 (ip), vehicle: saline
[20] = dose: 200.0 mg/kg/injection, schedule: Q04DX003 (ip), vehicle: saline
[21] = dose: 400.0 mg/kg/injection, schedule: Q01DX001 (ip), vehicle: saline
[22] = dose: 400.0 mg/kg/injection, schedule: Q04DX003 (ip), vehicle: saline
[23] = dose: 100.0 mg/kg/injection, schedule: Q01DX009 (ip), vehicle: saline with Tween-80
[24] = dose: 100.0 mg/kg/injection, schedule: Q04DX003 (ip), vehicle: saline with Tween-80
[25] = dose: 200.0 mg/kg/injection, schedule: Q01DX009 (ip), vehicle: saline with Tween-80
[26] = dose: 200.0 mg/kg/injection, schedule: Q04DX003 (ip), vehicle: saline with Tween-80
[27] = dose: 400.0 mg/kg/injection, schedule: Q01DX009 (ip), vehicle: saline with Tween-80
[28] = dose: 400.0 mg/kg/injection, schedule: Q04DX003 (ip), vehicle: saline with Tween-80
[29] = dose: 400.0 mg/kg/injection, schedule: Q04DX002 (ip), vehicle: saline
[30] = dose: 100.0 mg/kg/injection, schedule: Q01DX001 (ip), vehicle: saline with Tween-80
[31] = dose: 200.0 mg/kg/injection, schedule: Q01DX001 (ip), vehicle: saline with Tween-80
[32] = dose: 12.5 mg/kg/injection, schedule: Q04DX002 (ip), vehicle: saline
[33] = dose: 25.0 mg/kg/injection, schedule: Q04DX002 (ip), vehicle: saline

Cc1cc(C(=O)O)c(C)n1-c1cccc2ccccc12
T/C (dose: 75.0 mg/kg/injection, schedule: Q04DX003 (ip), vehicle: Klucel (hydroxypropylcellulose) (HPC)): 98 % of control
T/C (dose: 100.0 mg/kg/injection, schedule: Q01DX009 (ip), vehicle: Klucel (hydroxypropylcellulose) (HPC)): 102 % of control
T/C (dose: 150.0 mg/kg/injection, schedule: Q04DX003 (ip), vehicle: Klucel (hydroxypropylcellulose) (HPC)): 98 % of control
T/C [1]: 108 % of control
T/C (dose: 300.0 mg/kg/injection, schedule: Q04DX003 (ip), vehicle: Klucel (hydroxypropylcellulose) (HPC)): 97 % of control
T/C (dose: 400.0 mg/kg/injection, schedule: Q01DX009 (ip), vehicle: Klucel (hydroxypropylcellulose) (HPC)): 113 % of control

CCOC(=O)C(=O)C(=O)OCC
T/C [2]: 101 % of control
T/C [3]: 107 % of control
T/C [4]: 88 % of control

Clc1ccc(/C=N/c2snc3ccccc23)cc1Cl
T/C [5]: 92 % of control
T/C [6]: 89 % of control
T/C [7]: 86 % of control

CC(C)CC1C(C(C)C)C=NN1C (stereo not given)
T/C (dose: 50.0 mg/kg/injection, schedule: Q01DX001 (ip), vehicle: carboxymethylcellulose (CMC)): 100 % of control
T/C [8]: 86 % of control
T/C [9]: 100 % of control
T/C [10]: 94 % of control

C=CCc1cc(Nc2c3ccc(Cl)cc3nc3ccc(OC)cc23)cc(CN(CC)CC)c1O
T/C [11]: 106 % of control
T/C [12]: 98 % of control
T/C [13]: 98 % of control

NC(=O)NN=C(CCl)CCl
T/C [12]: 100 % of control
T/C [13]: 91 % of control

NC(CCC1SCCS1)C(=O)O (stereo not given)
T/C [8]: 104 % of control
T/C [9]: 96 % of control
T/C [10]: 98 % of control

CC1(C2CCN(Cc3ccccc3)CC2)OCCO1
T/C [14]: 100 % of control
T/C [15]: 100 % of control
T/C [16]: 101 % of control

CCOC(=O)C1C(=O)CC(C)(O)C(C(=O)OCC)C1c1ccccc1 (stereo not given)
T/C [17]: 98 % of control
T/C [18]: 104 % of control
T/C [19]: 106 % of control
T/C [20]: 100 % of control
T/C [21]: 109 % of control
T/C [22]: 94 % of control

c1ccc(-n2ncnn2)cc1
T/C [17]: 98 % of control
T/C [19]: 95 % of control
T/C [21]: 90 % of control

O=S(=O)(c1ccccc1)c1ccc(O)cc1
T/C (dose: 50.0 mg/kg/injection, schedule: Q01DX001 (ip), vehicle: saline): 95 % of control
T/C [17]: 89 % of control
T/C [19]: 108 % of control
T/C [21]: 101 % of control

COc1cccc(NC(=O)Oc2ccc(Cl)cc2Cl)c1
T/C [5]: 88 % of control
T/C [6]: 88 % of control

COc1ccc(C(=O)C(C)Br)c(OCc2ccccc2)c1OC (stereo not given)
T/C [23]: 107 % of control
T/C [24]: 106 % of control
T/C [25]: 97 % of control
T/C [26]: 90 % of control
T/C [27]: 98 % of control
T/C [28]: 105 % of control

CN(CCO)C1=C(N2CC2)C(=O)C(N(C)CCO)=C(N2CC2)C1=O
T/C (dose: 0.12 mg/kg/injection, schedule: Q01DX001 (ip), vehicle: saline): 103 % of control
T/C (dose: 0.12 mg/kg/injection, schedule: Q01DX009 (ip), vehicle: saline): 104 % of control and 105 % of control
T/C (dose: 0.24 mg/kg/injection, schedule: Q04DX003 (ip), vehicle: saline): 119 % of control
T/C (dose: 0.25 mg/kg/injection, schedule: Q01DX001 (ip), vehicle: saline): 100 % of control
T/C (dose: 0.25 mg/kg/injection, schedule: Q01DX009 (ip), vehicle: saline): 121 % of control
T/C (dose: 0.5 mg/kg/injection, schedule: Q01DX001 (ip), vehicle: saline): 112 % of control
T/C (dose: 0.55 mg/kg/injection, schedule: Q04DX003 (ip), vehicle: saline): 122 % of control
T/C (dose: 1.0 mg/kg/injection, schedule: Q01DX009 (ip), vehicle: saline): 184 % of control and 214 % of control
T/C (dose: 1.5 mg/kg/injection, schedule: Q04DX003 (ip), vehicle: saline): 111 % of control
T/C (dose: 3.0 mg/kg/injection, schedule: Q04DX003 (ip), vehicle: saline): 97 % of control

O=C(COc1ccc(Cl)cc1)NNc1ccccc1
T/C [12]: 100 % of control
T/C [13]: 96 % of control
T/C [29]: 114 % of control

CC1=NN(c2ccc(S(=O)(=O)O)cc2Cl)C(=O)C1
T/C [24]: 101 % of control
T/C [26]: 98 % of control
T/C [28]: 90 % of control

O=C(CCC(=O)Nc1ccc(Cl)c(Cl)c1)Nc1ccc(Cl)c(Cl)c1
T/C [5]: 93 % of control
T/C [6]: 89 % of control
T/C [7]: 104 % of control

O=C1CCC([N+](=O)[O-])C(c2ccc3ccccc3c2)N1 (stereo not given)
T/C [30]: 95 % of control
T/C [31]: 95 % of control
T/C (dose: 400.0 mg/kg/injection, schedule: Q01DX001 (ip), vehicle: saline with Tween-80): 95 % of control

S=C(NCCN1CCOCC1)Nc1ccccc1
T/C (dose: 50.0 mg/kg/injection, schedule: Q01DX001 (ip), vehicle: other): 105 % of control
T/C (dose: 100.0 mg/kg/injection, schedule: Q01DX001 (ip), vehicle: other): 94 % of control
T/C (dose: 200.0 mg/kg/injection, schedule: Q01DX001 (ip), vehicle: other): 94 % of control
T/C (dose: 400.0 mg/kg/injection, schedule: Q01DX001 (ip), vehicle: other): 92 % of control

CCCCN(CCCC)CCNCC(Cc1ccccc1)c1ccccc1 (stereo not given)
T/C [5]: 93 % of control

O=C(COc1cc(Cl)c(Cl)cc1Cl)NCCO
T/C [5]: 92 % of control
T/C [6]: 110 % of control
T/C [7]: 108 % of control

CC(O)C(N)C(=O)O (stereo not given)
T/C [32]: 103 % of control and 97 % of control
T/C (dose: 18.75 mg/kg/injection, schedule: Q04DX003 (ip), vehicle: saline): 101 % of control
T/C [33]: 107 % of control
T/C [14]: 98 % of control
T/C [11]: 107 % of control
T/C [15]: 108 % of control and 114 % of control
T/C [8]: 87 % of control
T/C [12]: 107 % of control
T/C [16]: 108 % of control
T/C [9]: 91 % of control
T/C [1]: 91 % of control
T/C [13]: 93 % of control
T/C (dose: 300.0 mg/kg/injection, schedule: Q04DX003 (ip), vehicle: saline): 94 % of control
T/C [10]: 89 % of control
T/C [29]: 107 % of control

O=C(NC(=S)Nc1ccc(Cl)c(Cl)c1)c1ccc(Cl)cc1Cl
T/C [30]: 93 % of control
T/C [23]: 97 % of control and 98 % of control
T/C [2]: 98 % of control and 90 % of control
T/C [24]: 93 % of control
T/C [31]: 89 % of control
T/C [25]: 91 % of control and 92 % of control
T/C [3]: 101 % of control
T/C [26]: 93 % of control
T/C [27]: 87 % of control and 91 % of control
T/C [4]: 95 % of control and 90 % of control
T/C [28]: 93 % of control

CCN(CC)CCOc1ccc(/C(=C(\Cl)c2ccccc2)c2ccccc2)cc1
T/C (dose: 6.25 mg/kg/injection, schedule: Q04DX002 (ip), vehicle: saline): 118 % of control
T/C [32]: 118 % of control
T/C [33]: 124 % of control
T/C [11]: 121 % of control and 124 % of control
T/C [12]: 96 % of control

N#C/C=C/C1=CCCCC1
T/C [18]: 101 % of control
T/C [20]: 97 % of control
T/C [22]: 93 % of control

O=[N+]([O-])c1ccc(OCc2ccc(S(=O)(=O)F)cc2)c(Cl)c1
T/C (dose: 100.0 mg/kg/injection, schedule: Q04DX003 (ip), vehicle: other): 97 % of control
T/C (dose: 200.0 mg/kg/injection, schedule: Q04DX003 (ip), vehicle: other): 97 % of control
T/C (dose: 400.0 mg/kg/injection, schedule: Q04DX003 (ip), vehicle: other): 92 % of control
